For this experiment, the system named is HEK293E cells. In words: Transient IgG expression, batch titer by ELISA, VPA concentration series (Example 1). It counts as cell-based, Human. The conditions noted are these: for Fold increase over control / Batch titer: IgG, day 5 after transfection; for Batch titer: 37° C. The procedure: 10 million suspension-adapted HEK293E cells were resuspended in 0.5 ml of Ex-Cell 293 HEK 293 serum-free medium with 4 mmol/l L-glutamine (Cat. No. 14571C-1000 M; Lot No. 6A0093; SAFC Biosciences, Lenexa, Kans., USA, “Ex-Cell” medium; note: “Ex-Cell” medium-as used herein-refers to a medium comprising 4 mmol/l L-glutamine) in a 50-ml filter tube each (TPP AG, Trasadingen, Switzerland; Cat. No. 87050, Lot 20050174). In a separate set, 10 million suspension-adapted CHO DG44 cells were resuspended in 0.5 ml of ProCHO5 serum-free medium with 4 mmol/[…] hypoxanthine and 0.194 g/l thymidine (BioWhittaker (Lonza), Belgium; Cat. No. BE12-[…]; Lot No. 7 MB0040; “ProCHO5” medium; note: “ProCHO5” medium-as used herein-refers to a medium comprising 4 mmol/[…] hypoxanthine and 0.194 g/l thymidine) in a 50-ml filter tube each (TPP AG, Trasadingen, Switzerland; Cat. No. 87050, Lot 20050174). Then 12.5 μg plasmid DNA at a concentration of 1 μg/μl was added in each tube with the following composition 50% (6.25 μg) p-LC (SEQ ID NO: 1) 50% (6.25 μg) p-HC (SEQ ID NO: 3). Plasmid p-LC comprises the genetic information for the production of the light chain of an IgG antibody, plasmid p-HC comprises the genetic information for the production of the heavy chain of an IgG antibody. The particular vector constructs used in the present invention can also be obtained from the inventors. The inventors can be contacted via e-mail at […]. Moreover, commercial services do exist that produce any desired nucleotide sequence even comprising several kilobase pairs including complete expression cassettes in plasmid backgrounds (e.g., Invitrogen, Carlsbad, USA; Geneart, Germany.) Thus, providing the genetic sequence information of the plasmids should enable one of ordinary skill in the art to order the plasmids of the present invention at one of the commercial services listed. After shortly mixing the DNA with the cells by gentle shaking, 25 μg of 25-kd linear polyethyleneimine (“PEI”; Polysciences, Eppelheim, Germany; [2]) were added at a concentration of 1 μg/μl to each of the tubes. After shortly mixing by gentle shaking, the filter tubes containing the cells together with the DNA and PEI were transferred into an orbital shaker (Kühner Shaker Cabinet ISF-4-W, “Kühner shaker”, Kühner AG, Birsfelden, Switzerland), and the cells were incubated for 4 hours at 37° C. in a 5% CO2 atmosphere under shaking at 180 rpm. After that time, 4.5 ml of Ex-Cell medium were added to each of the filter tubes containing HEK 293 cells and 4.5 ml of Pro-CHO5 were added to each of the filter tubes containing CHO DG44 cells. Then, valproic acid was added to each of the tubes at the corresponding final concentration. The cells then were returned into the Kühner shaker and incubated at 37° C. in a 5% CO2 atmosphere under shaking at 180 rpm. […] The ELISA was performed as published in prior art. In short, Goat anti-human kappa light chain IgG (Biosource) was used for coating the ELISA-plates, and with AP-conjugated goat anti-human gamma chain IgG (Biosource) the synthesized IgG1 was detected. NPP was used as a substrate for the alkaline phosphatase. Absorption was measured at 405 nm against 490 nm using a microplate reader (SPECTRAmaxTM340; Molecular Devices, Palo Alto, Calif., USA).

For the compound `CCCC(CCC)C(=O)O` [VPA, valproic acid], the “Fold increase over control” value came out at 2.2 fold (1.3 mmol/l final VPA); 4.1 fold (2.5 mmol/l final VPA); 5.3 fold (4 mmol/l final VPA); 4.3 fold (5 mmol/l final VPA); 1.8 fold (7.5 mmol/l final VPA); 0.9 fold (11.3 mmol/l final VPA). This compound displayed a Batch titer (1.3 mmol/l final VPA) of 33.0 ± 4.3 mg/L; a Batch titer (2.5 mmol/l final VPA) of 61.8 ± 5.7 mg/L; a Batch titer (4 mmol/l final VPA) of 79.5 ± 3.6 mg/L; a Batch titer (5 mmol/l final VPA) of 64.5 ± 6.5 mg/L; a Batch titer (7.5 mmol/l final VPA) of 27.0 ± 3.1 mg/L; a Batch titer (11.3 mmol/l final VPA) of 13.5 ± 2.1 mg/L. Under “for batch titer, HEK293E cells, day 5”, the optimal final concentration result is recorded as “around 4 mmol/l”.

(Values after patent US20090023186A1, “USE OF VALPROIC ACID FOR ENHANCING PRODUCTION OF RECOMBINANT PROTEINS IN MAMMALIAN CELLS” (EXCELLGENE SA, priority 2007, published 2009).)
